# According to patent US8827946B2 (Shin Nippon Biomedical Laboratories, Ltd., priority 2009, dated 2014):
# Like-named read-outs stand apart in the source and are kept apart here.
# Test: Phase 1 clinical study, pharmacokinetics of granisetron after intravenous and intranasal administration
# Type: in vivo, human
# Description: This was an open-label safety and PK study conducted at a single site in which healthy volunteers, at weekly intervals, were given the reference intravenous dose, followed by three single escalating nasal doses of TRG at weekly intervals.
# Subjects received one intravenous dose of Kytril® (10 μg/kg) followed by three escalating single doses of TRG. There was a 7 day washout period between each dose.
# The following PK parameters were tested: AUC0-last (ng·h/mL), AUCinf (ng·h/mL), Tmax (hours), Cmax (ng/mL), T1/2 (hours), clearance, and volume of distribution. No efficacy variables were assessed in this safety and PK study.
# The PK parameters T1/2, Tmax, Cmax, AUC0-last, and AUCinf were calculated by using noncompartmental analysis. Values for Tmax and Cmax were reported as the observed values. Terminal elimination rate constants (λz) were determined by log-linear regression of the terminal portion of the concentration-time curves (FIG. 8). Values for T1/2 were calculated as (ln 2)/λz, and AUC0-last was determined by the linear trapezoidal method. AUCinf was calculated as the sum of AUC0-last and Clast/λz where Clast is the last measurable concentration. The absolute bioavailability (F) was calculated for each subject by the dose-corrected AUCinf intranasal divided by AUCinf intravenous. Apparent clearance and volume of distribution were also calculated. To determine the relationship between pharmacokinetic parameters (Cmax, AUClast, and AUC0-∞) and dosage, a multiple regression analysis was performed with log-transformed values. For other pharmacokinetic parameters, analysis of variance (ANOVA) using the mixed effect model was performed to compare between groups.
# [1] = human, plasma, 10 ug/kg, intravenous 10 μg/kg (Kytril), healthy male volunteers, mean, N=8
# [2] = human, plasma, inhaled or intranasal, intranasal 0.5 mg (TRG capsule, single nostril), healthy male volunteers, mean
# [3] = human, plasma, inhaled or intranasal, intranasal 1.0 mg (TRG capsule, single nostril), healthy male volunteers, mean
# [4] = human, plasma, inhaled or intranasal, intranasal 2.0 mg (TRG capsule, single nostril), healthy male volunteers, mean
# [5] = intranasal 0.5 mg (TRG capsule, single nostril), healthy male volunteers, mean
# [6] = intranasal 1.0 mg (TRG capsule, single nostril), healthy male volunteers, mean
# [7] = intranasal 2.0 mg (TRG capsule, single nostril), healthy male volunteers, mean
compound,measurement,setting,value
"CN1C2CCCC1CC(NC(=O)c1nn(C)c3ccccc13)C2 (stereo not drawn) [Granisetron, endo-N-(9-methyl-9-azabicyclo[3.3.1]non-3-yl)-1-methyl-1H-indazole-3-carboxamide]",AUC(0-inf),[1],103 ng·h/mL
same,AUC(0-t),[1],92.4 ng·h/mL
same,Cmax,[1],16.6 ng/mL
same,clearance,[1],158 mL/min
same,half-life,"human, plasma, 10 ug/kg, intravenous 10 μg/kg (Kytril), healthy male volunteers, mean, N=8, read-out: T1/2 (converted)",8.52 h
same,Vd,"human, plasma, 10 ug/kg, intravenous 10 μg/kg (Kytril), healthy male volunteers, mean, N=8, read-out: Vss",108 L
same,AUC(0-inf),[2],52.7 ng·h/mL
same,AUC(0-t),[2],46.9 ng·h/mL
same,Cmax,[2],4.95 ng/mL
same,half-life,"human, plasma, inhaled or intranasal, intranasal 0.5 mg (TRG capsule, single nostril), healthy male volunteers, mean, read-out: T1/2 (converted)",8.9 h
same,AUC(0-inf),[3],119 ng·h/mL
same,AUC(0-t),[3],105 ng·h/mL
same,Cmax,[3],13.3 ng/mL
same,half-life,"human, plasma, inhaled or intranasal, intranasal 1.0 mg (TRG capsule, single nostril), healthy male volunteers, mean, read-out: T1/2 (converted)",9.52 h
same,AUC(0-inf),[4],236 ng·h/mL
same,AUC(0-t),[4],210 ng·h/mL
same,Cmax,[4],26.6 ng/mL
same,half-life,"human, plasma, inhaled or intranasal, intranasal 2.0 mg (TRG capsule, single nostril), healthy male volunteers, mean, read-out: T1/2 (converted)",9.29 h
same,CL/F,[5],10.6 L/h
same,Vz,[5],131.4 L
same,CL/F,[6],9.1 L/h
same,Vz,[6],122.6 L
same,CL/F,[7],9.2 L/h
same,Vz,[7],122.0 L
same,Tmax,"male, human, plasma, inhaled or intranasal, 0.5 mg, intranasal 0.5 mg (TRG capsule, single nostril), healthy male volunteers, mean, read-out: Tmax",1.34 h
same,Tmax,"male, human, plasma, inhaled or intranasal, 1 mg, intranasal 1.0 mg (TRG capsule, single nostril), healthy male volunteers, mean, read-out: Tmax",0.34 h
same,Tmax,"male, human, plasma, inhaled or intranasal, 2 mg, intranasal 2.0 mg (TRG capsule, single nostril), healthy male volunteers, mean, read-out: Tmax",0.63 h
same,Tmax,"male, human, plasma, inhaled or intranasal, 2 mg, intranasal, 0.5, 1.0 and 2.0 mg doses together, read-out: overall mean Tmax",0.75 h
same,half-life,"male, human, plasma, inhaled or intranasal, after intranasal administration, all dose levels, read-out: overall mean half-life (converted)",9.23 h
same,Tmax,"male, human, plasma, iv, 10 ug/kg, intravenous 10 μg/kg (Kytril), healthy male volunteers, mean, N=8, read-out: Tmax",0.18 h
same,Tmax,"male, human, plasma, iv, 10 μg/kg, intravenous rapid infusion 10 μg/kg, all subjects except one, read-out: Tmax",0.0833 to 0.167 h
